From US12617773B2, “Azetidin-3-ylmethanol derivatives as CCR6 receptor modulators” (Idorsia Pharmaceuticals Ltd, priority 2020, dated 2026)

Each compound was assayed against T1, human CCR6 (Homo sapiens, UniProt P51684) (assay: FLIPR assay (inhibition of CCL20-induced calcium signal)). Settings: HEK-293 cells expressing human CCR6; mean values where determined several times; read-out: FLIPR IC50.
T1 construct: expressed in transfected cells; host or cells: HEK-293
T1 sequence (P51684 1-374): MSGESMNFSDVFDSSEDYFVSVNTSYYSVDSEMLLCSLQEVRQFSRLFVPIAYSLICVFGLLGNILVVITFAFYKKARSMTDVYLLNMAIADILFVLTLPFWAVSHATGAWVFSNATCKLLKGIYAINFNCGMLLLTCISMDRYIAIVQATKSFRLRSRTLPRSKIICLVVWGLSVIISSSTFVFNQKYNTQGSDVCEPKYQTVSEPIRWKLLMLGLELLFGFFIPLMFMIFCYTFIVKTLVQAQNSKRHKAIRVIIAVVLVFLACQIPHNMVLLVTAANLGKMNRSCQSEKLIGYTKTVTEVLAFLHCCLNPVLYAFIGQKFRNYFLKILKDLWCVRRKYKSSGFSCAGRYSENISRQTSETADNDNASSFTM
Type: cell-based
Outline: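 Dye-loaded HEK-293 cells expressing human CCR6 were preincubated with compound for 30 min at room temperature in the dark, then challenged with 10 nM CCL20 (final). Fluorescence was tracked on FLIPR, and baseline-subtracted peak emission over base after agonist addition gave inhibition dose-response curves for IC50.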
`CC(C)c1ccc([C@](O)(c2cnnc(Oc3ccccc3CCO)c2)C2(C)CN(C)C2)cc1` [Example 394, 2-(2-{5-[(R)-(1,3-Dimethyl-azetidin-3-yl)-hydroxy-(4-isopropyl-phenyl)-methyl]-pyridazin-3-yloxy}-phenyl)-ethanol] was tested, and the IC50 was 1040 nM.
`CC(C)c1ccc([C@](O)(c2cnnc(Oc3ccc(CCO)cc3)c2)C2(C)CN(C)C2)cc1` [Example 395] showed an IC50 of 60.1 nM.
With `CC(C)c1ccc([C@](O)(c2cnnc(Oc3ccc4c(c3)CCCO4)c2)C2(C)CN(C)C2)cc1` [Example 396] the IC50 was 34.4 nM.
Work on `CC(C)c1ccc([C@](O)(c2cnnc(Oc3ccc4[nH]c(=O)oc4c3)c2)C2(C)CN(C)C2)cc1` [Example 397] yielded an IC50 of 29.1 nM.
`CCC(O)(C#Cc1cncc([C@@](O)(c2ccc(C(C)C)cc2)C2(C)CN(C)C2)c1)c1cc(C)ncn1` (stereo partly shown) [Example 398] showed an IC50 of 51.8 nM.
With `Cc1cc([C@@](C)(O)C#Cc2cncc([C@@](O)(c3ccc(C(C)C)cc3)C3(C)CN(C)C3)c2)ncn1` [Example 399] the IC50 was 107 nM.
Compound `Cc1cc([C@](C)(O)C#Cc2cncc([C@@](O)(c3ccc(C(C)C)cc3)C3(C)CN(C)C3)c2)ncn1` [Example 400] has an IC50 of 160 nM.
Work on `CC(C)c1ccc([C@](O)(c2cncc(C#CC3(c4ccc(F)cc4)CC3)c2)C2(C)CN(C)C2)cc1` [Example 403] yielded an IC50 of 40.4 nM.
`CC(C)c1ccc([C@](O)(c2cncc(C#CC3(O)CCN(C(=O)OC(C)(C)C)C3)c2)C2(C)CN(C)C2)cc1` (stereo partly shown) [Example 406] gave an IC50 of 37.6 nM.
Compound `CC(C)c1ccc([C@](O)(c2cncc(C#CC3CCN(C(=O)OC(C)(C)C)CC3)c2)C2(C)CN(C)C2)cc1` [Example 407] has an IC50 of 51.8 nM.
`CCC(O)(CCc1cncc([C@@](O)(c2ccc(C(C)C)cc2)C2(C)CN(C)C2)c1)c1cc(C)ncn1` (stereo partly drawn) [Example 408, 1-{5-[(R)-(1,3-Dimethyl-azetidin-3-yl)-hydroxy-(4-isopropyl-phenyl)-methyl]-pyridin-3-yl}-3-(6-methyl-pyrimidin-4-yl)-pentan-3-ol] gave an IC50 of 138 nM.
Work on `COC(=O)c1ccccc1CCc1cncc([C@@](O)(c2ccc(C(C)C)cc2)C2(C)CN(C)C2)c1` [Example 409] yielded an IC50 of 48.8 nM.
With `CC(C)c1ccc([C@](O)(c2cncc(CCc3ccccc3CO)c2)C2(C)CN(C)C2)cc1` [Example 410] the IC50 was 84.9 nM.
For `COc1cc(C(C)(O)CCc2cncc([C@@](O)(c3ccc(C(C)C)cc3)C3(C)CN(C)C3)c2)ncn1` (stereo partly shown) [Example 411], the IC50 was 86.3 nM.
`CC(C)c1ccc([C@](O)(c2cncc(CCC3(O)CCN(C(=O)OC(C)(C)C)C3)c2)C2(C)CN(C)C2)cc1` (stereo partly shown) [Example 412] was tested, and the IC50 was 90 nM.
With `CC(C)c1ccc([C@](O)(c2cncc(CCc3cc4cccnc4[nH]3)c2)C2(C)CN(C)C2)cc1` [Example 413, (R)-(1,3-Dimethyl-azetidin-3-yl)-(4-isopropyl-phenyl)-{5-[2-(1H-pyrrolo[2,3-b]pyridin-2-yl)-ethyl]-pyridin-3-yl}-methanol] the IC50 was 36.7 nM.
In the case of `CC(C)c1ccc([C@](O)(c2cncc(CCC3CCN(C(=O)OC(C)(C)C)CC3)c2)C2(C)CN(C)C2)cc1` [Example 414, 4-(2-{5-[(R)-(1,3-Dimethyl-azetidin-3-yl)-hydroxy-(4-isopropyl-phenyl)-methyl]-pyridin-3-yl}-ethyl)-piperidine-1-carboxylic acid tert-butyl ester], the IC50 is reported as 34.7 nM.
For `CC(C)c1ccc([C@](O)(c2cncc(CCC(C)(O)c3ccccn3)c2)C2(C)CN(C)C2)cc1` (stereo partly shown) [Example 415], the IC50 was 61.9 nM.
Compound `CC(C)c1ccc([C@](O)(c2cncc(CCC(O)(c3ccccn3)C3CC3)c2)C2(C)CN(C)C2)cc1` (stereo partly shown) [Example 416] has an IC50 of 14.7 nM.
`Cc1cncc(C(C)(O)CCc2cncc([C@@](O)(c3ccc(C(C)C)cc3)C3(C)CN(C)C3)c2)c1` (stereo partly shown) [Example 417] was tested, and the IC50 was 118 nM.
`CC(C)c1ccc([C@](O)(c2cnnc(CCC3(O)CCCc4cccnc43)c2)C2(C)CN(C)C2)cc1` (stereo partly drawn) [Example 418, 8-(2-{5-[(R)-(1,3-Dimethyl-azetidin-3-yl)-hydroxy-(4-isopropyl-phenyl)-methyl]-pyridazin-3-yl}-ethyl)-5,6,7,8-tetrahydro-quinolin-8-ol] showed an IC50 of 190 nM.
In the case of `COc1cccc(C(C)(O)CCc2cc([C@@](O)(c3ccc(C(C)C)cc3)C3(C)CN(C)C3)cnn2)n1` (stereo partly drawn) [Example 419, 4-{5-[(R)-(1,3-Dimethyl-azetidin-3-yl)-hydroxy-(4-isopropyl-phenyl)-methyl]-pyridazin-3-yl}-2-(6-methoxy-pyridin-2-yl)-butan-2-ol], the IC50 is reported as 155 nM.
Work on `Cc1cccc(C(C)(O)CCc2cc([C@@](O)(c3ccc(C(C)C)cc3)C3(C)CN(C)C3)cnn2)n1` (stereo partly drawn) [Example 420, 4-{5-[(R)-(1,3-Dimethyl-azetidin-3-yl)-hydroxy-(4-isopropyl-phenyl)-methyl]-pyridazin-3-yl}-2-(6-methyl-pyridin-2-yl)-butan-2-ol] yielded an IC50 of 277 nM.
For `CC(C)c1ccc(C(O)(c2cccc(N3CCCC3)n2)C2(C)CN(C)C2)cc1` (stereo not shown) [Example 421, (1,3-Dimethyl-azetidin-3-yl)-(4-isopropyl-phenyl)-(6-pyrrolidin-1-yl-pyridin-2-yl)-methanol], the IC50 was 712 nM.
`CC(=O)N1CCC(F)(c2nc(-c3cncc([C@@](O)(c4ccc(C(C)C)cc4)C4(C)CN(C)C4)c3)no2)CC1` [Example 422] was tested, and the IC50 was 66.7 nM.
`CC(=O)N1CCC(C)(c2nc(-c3cncc([C@@](O)(c4ccc(C(C)C)cc4)C4(C)CN(C)C4)c3)no2)CC1` [Example 423] gave an IC50 of 61.8 nM.
`CC(C)c1ccc([C@](O)(c2cncc(OC3CCC(=O)CC3)c2)C2(C)CN(C)C2)cc1` [Example 424, 4-{5-[(R)-(1,3-Dimethyl-azetidin-3-yl)-hydroxy-(4-isopropyl-phenyl)-methyl]-pyridin-3-yloxy}-cyclohexanone] showed an IC50 of 107 nM.
For `CC(C)c1ccc([C@](O)(c2cncc(C3CCC(O)CC3)c2)C2(C)CN(C)C2)cc1` (stereo partly drawn) [Example 425, 4-{5-[(R)-(1,3-Dimethyl-azetidin-3-yl)-hydroxy-(4-isopropyl-phenyl)-methyl]-pyridin-3-yl}-cyclohexanol], the IC50 was 1730 nM.
`CC(C)c1ccc([C@](O)(c2cncc(COC3CCCC3)c2)C2(C)CN(C)C2)cc1` [Example 426, (R)-(5-Cyclopentyloxymethyl-pyridin-3-yl)-(1,3-dimethyl-azetidin-3-yl)-(4-isopropyl-phenyl)-methanol] gave an IC50 of 17.7 nM.
`CC(=O)N1CCC(OCc2cncc([C@@](O)(c3ccc(C(C)C)cc3)C3(C)CN(C)C3)c2)CC1` [Example 427] gave an IC50 of 292 nM.
In the case of `CC(C)c1ccc([C@](O)(c2cnnc(C3CCOCC3)c2)C2(C)CN(C)C2)cc1` [Example 428, (R)-(1,3-Dimethyl-azetidin-3-yl)-(4-isopropyl-phenyl)-[6-(tetrahydro-pyran-4-yl)-pyridazin-4-yl]-methanol], the IC50 is reported as 598 nM.
In the case of `CC(C)c1ccc([C@](O)(c2cnnc(CCC(C)(O)c3ccccc3)c2)C2(C)CN(C)C2)cc1` (stereo partly drawn) [Example 429, 4-{5-[(R)-(1,3-Dimethyl-azetidin-3-yl)-hydroxy-(4-isopropyl-phenyl)-methyl]-pyridazin-3-yl}-2-phenyl-butan-2-ol], the IC50 is reported as 103 nM.
For `CC(C)c1ccc([C@](O)(c2cnnc(O[C@H]3CCOC3)c2)C2(C)CN(C)C2)cc1` [Example 430, (R)-(1,3-Dimethyl-azetidin-3-yl)-(4-isopropyl-phenyl)-{6-[(S)-(tetrahydro-furan-3-yl)oxy]-pyridazin-4-yl}-methanol], the IC50 was 209 nM.
`CC(C)c1ccc([C@](O)(c2cnnc(O[C@@H]3CCOC3)c2)C2(C)CN(C)C2)cc1` [Example 431, (R)-(1,3-Dimethyl-azetidin-3-yl)-(4-isopropyl-phenyl)-{6-[(R)-(tetrahydro-furan-3-yl)oxy]-pyridazin-4-yl}-methanol] gave an IC50 of 197 nM.
Work on `CC1CC(=O)N(c2cc([C@@](O)(c3ccc(C(C)C)cc3)C3(C)CN(C)C3)cnn2)C1` (stereo partly shown) [Example 432] yielded an IC50 of 146 nM.
In the case of `CC(C)c1ccc([C@](O)(c2cnnc(N3CCC(C(C)C)C3=O)c2)C2(C)CN(C)C2)cc1` (stereo partly shown) [Example 433], the IC50 is reported as 58.5 nM.
With `CC(C)c1ccc([C@](O)(c2cnnc(N3CCC(C)(C)C3=O)c2)C2(C)CN(C)C2)cc1` [Example 434] the IC50 was 147 nM.
Compound `CC(C)c1ccc([C@](O)(c2cnnc(N3CC(C)(C)CC3=O)c2)C2(C)CN(C)C2)cc1` [Example 435] has an IC50 of 175 nM.
`CC(C)c1ccc([C@](O)(c2cnnc(N3CC(C(F)(F)F)CC3=O)c2)C2(C)CN(C)C2)cc1` (stereo partly shown) [Example 437] showed an IC50 of 95.2 nM.
For `CC(C)c1ccc([C@](O)(c2cnnc(N3CC(C4CC4)CC3=O)c2)C2(C)CN(C)C2)cc1` (stereo partly shown) [Example 438], the IC50 was 53.6 nM.
In the case of `CC(C)c1ccc([C@](O)(c2cnnc(N3CC4(CCOCC4)CC3=O)c2)C2(C)CN(C)C2)cc1` [Example 439], the IC50 is reported as 265 nM.
In the case of `CC(C)c1ccc([C@](O)(c2cnnc(N3CC4(CCCCC4)OC3=O)c2)C2(C)CN(C)C2)cc1` [Example 440], the IC50 is reported as 50.7 nM.
In the case of `CC(C)c1ccc([C@](O)(c2cnnc(N3CC(c4ccccn4)CC3=O)c2)C2(C)CN(C)C2)cc1` (stereo partly shown) [Example 441], the IC50 is reported as 118 nM.
Work on `COCCC1CCN(c2cc([C@@](O)(c3ccc(C(C)C)cc3)C3(C)CN(C)C3)cnn2)C1=O` (stereo partly shown) [Example 442] yielded an IC50 of 177 nM.
In the case of `CC(C)c1ccc([C@](O)(c2cnnc(N3CC(c4ccccc4)CC3=O)c2)C2(C)CN(C)C2)cc1` (stereo partly shown) [Example 443], the IC50 is reported as 35.3 nM.
Work on `CC(C)c1ccc([C@](O)(c2cnnc(N3Cc4ccccc4C3=O)c2)C2(C)CN(C)C2)cc1` [Example 444] yielded an IC50 of 33.4 nM.
